The text below walks through data of patent publication EP0609289B1, “IMIDAZOLE DERIVATIVES AND PHARMACEUTICAL COMPOSITIONS CONTAINING THE SAME” (THE UPJOHN COMPANY, priority 1991, dated 1993).

The subject of test [1] is angiotensin II constriction in an isolated rabbit thoracic aorta. As to the kind of experiment: Antagonism to angiotensin II constriction in an isolated rabbit thoracic aorta (test 3). The settings on record: test compound 10^-6 M for 20 minutes. The method, then:
3) Antagonism to angiotensin II constriction in an isolated rabbit thoracic aorta
A rectangular strip-like sample of thoracic aorta isolated from an anaesthetized rabbit was prepared, and the sample was suspended at 2.0 g of loaded tension in a Magnus tube filled with Krebs-Henseleitoid nutrition solution which was well aerated with 95% O2-5% CO2, and the constriction tension was measured using an isometric transducer. After the tension of the sample at rest became stable, accumulative administration of angiotensin II was carried out to obtain a concentration-action curve. Thereafter, the sample was washed with the same nutrition solution, then treated with test compound (10^-6 M) for 20 minutes to obtain again a concentration-action curve of angiotensin II. The results were obtained as followed: generated maximum tension at the first accumulative administration of angiotensin II was regarded as 100 %, and the 50 % effective concentration (ED50) was obtained in the presence or absence of the test compound, and pA2 value was calculated according to the following equations: • pA2=-logKB KB=C/{(A'/A)-1} • C; concentration of the test compound (M) • A'; ED50 in the presence of test compound (M) • A; ED50 in the absence of the test compound (M)

Another test has as its target Angiotensin II receptor. As to the kind of experiment: In vitro angiotensin II mesenteric artery receptor binding assay (test 1). The settings on record: rat mesenteric artery membrane fraction, 0.2 nM 125I-Ang II, 22°C, 90 minutes. The procedure:
I) In vitro angiotensin II mesenteric artery receptor binding assay
According to the method (1) by Gunther et al., a membrane fraction was prepared from mesenteric artery of male rat, […] protein equivalent of it and 0.2 nM ^125I-Ang II as well as various concentrations of test compounds were incubated at 22°C for 90 minutes in an incubation buffer (50 mM Tris-HCl, 120 mM NaCl, 5 mM MgCl2. 0.25% bovine serum albumin, pH 7.2) (reaction volume; 200 µl). The incubated was cooled, and the reaction was stopped by addition of ice-cooled phosphate buffer (10 mM phosphate, 140 mM NaCI, pH 7.4, hereinafter referred to as PBS), and then the reaction solution was filtered through a glass fiber filter (Whatman CF/B), the filter was washed, dried, and then the radioactivity of captured ^125I-angiotensin II which bound to the receptor was measured by a γ-counter. Non-specific bound amount was obtained from the reaction in the presence of 1 µM of unlabeled angiotensin II. […] Res., 17:278-286, 1980].

In test [2] the test system is blood pressure increase by angiotensin II. As to the kind of experiment: Antagonism to blood pressure increase by angiotensin II in a spine destroyed (pithed) rat (test 4). The note with it: intravenous administration, 3µg/kg angiotensin II, read-out: Inhibition of blood pressure increase by angiotensin II in pithed rat ED50(mg/kg) (test 4). The class given is in vivo, Wistar rat. An excerpt:
4) Antagonism to blood pressure increasing by angiotensin II in a spine destroyed rat
Wistar rat anaesthetized with pentobarbital was fixed at dorsal position, and a cannula for measuring blood pressure was inserted into sinister arteria carotis communis, and a cannula for administration of the test compound into dexter external jugular vein and a cannula for administration of angiotensin II into sinister external jugular vein, ambilateral nervus vagus was cut, and artificial respiration was carried out. A thin bar made of metal was stabbed into spinal column through sinister orbita to destroy spine. Blood pressure was recorded on polygraph via pressure transducer from an arterial cannula. After blood pressure was stable for more than 30 min., 3µg/kg of angiotensin II was administered intravenously four times every 15 min, and every 5 min. before the administration of angiotensin II from the second administration onward, a solvent, a lower dose of the test compound, and a higher dose of the test compound were administered intravenously in this order to observe the blood pressure increasing response by angiotensin II. ED50 values were calculated from the inhibiting rate when the first blood pressure increase by angiotensin II was regarded as 100 %.

As a reminder, the IC50 is the concentration needed to halve the response being measured. Read a low IC50 as greater potency. Turning to `CCCc1nc2c(=O)n3n(c(=O)c2n1Cc1ccc(-c2ccccc2-c2nn[nH]n2)cc1)CCCC3` [Compound No. 46, 2-n-propyl-5,6,7,8-tetrahydro-1-[(2'-(1H-tetrazol-5-yl)biphenyl-4-yl)methyl]-1H-1,3,4a,8a-tetraza-cyclopentanaphthalene-4,9-dione], the “Inhibition of rabbit aorta constriction pA2 (test 3)” value (from here on “Inhibition”) in test [1] came out at 8.95. The same compound displayed an IC50 at Angiotensin II receptor of 3.3 nM.
On to `CCCCc1nc2c(=O)n3n(c(=O)c2n1Cc1ccc(-c2ccccc2-c2nn[nH]n2)cc1)CC(C)C(C)C3` (stereo not shown) [Compound No. 51, 2-n-butyl-6,7-dimethyl-5,6,7,8-tetrahydro-1-[(2'-(1H-tetrazol-5-yl)biphenyl-4-yl)methyl]-1H-1,3,4a,8a-tetraza-cyclopentanaphthalene-4,9-dione], for which, in test [2], the ED50 is 0.65 mg/kg. Also, in test [1], the “Inhibition” value was found to be 9.04. On Angiotensin II receptor, this compound registered an IC50 of 4.6 nM.
Consider `CCCCc1nc2c(=O)n3n(c(=O)c2n1Cc1ccc(-c2ccccc2-c2nn[nH]n2)cc1)CC=CC3` [Compound No. 71, 2-n-butyl-5,8-dihydro-1-[(2'-(1H-tetrazol-5-yl)biphenyl-4-yl)methyl]-1H-1,3,4a,8a-tetraza-cyclopentanaphthalene-4,9-dione], for which the “Inhibition” value in test [1] was determined as 9.09. For the same compound, the IC50 at Angiotensin II receptor worked out at 7 nM.
On to `CCCc1nc2c(=O)n3n(c(=O)c2n1Cc1ccc(-c2ccccc2-c2nn[nH]n2)cc1)C1C=CC3CC1` (stereo not shown) [Compound No. 105, 5,8-dihydro-5,8-ethano-2-n-propyl-1-[(2'-(1H-tetrazol-5-yl)biphenyl-4-yl)methyl]-1H-1,3,4a,8a-tetraza-cyclopentanaphthalene-4,9-dione], for which the ED50 in test [2] amounted to 0.1 mg/kg. Moreover, the “Inhibition” value in test [1] is recorded as 9.42. The IC50 at Angiotensin II receptor was determined as 1.5 nM.
For the compound `CCCc1nc2c(=O)n3n(c(=O)c2n1Cc1ccc(-c2ccccc2-c2nn[nH]n2)cc1)C1CCC3CC1` [Compound No. 108, 5,8-ethano-2-n-propyl-5,6,7,8-tetrahydro-1-[(2'-(1H-tetrazol-5-yl)biphenyl-4-yl)methyl]-1H-1,3,4a,8a-tetraza-cyclopentanaphthalene-4,9-dione], the ED50 in test [2] stood at 0.069 mg/kg. The “Inhibition” value in test [1] is recorded as 9.53. The compound also displayed an IC50 at Angiotensin II receptor of 1.9 nM.
Regarding `CCCCc1nc2c(=O)n3n(c(=O)c2n1Cc1ccc(-c2ccccc2-c2nn[nH]n2)cc1)C1CCC3CC1` [Compound No. 109, 2-n-butyl-5,8-ethano-5,6,7,8-tetrahydro-1-[(2'-(1H-tetrazol-5-yl)biphenyl-4-yl)methyl]-1H-1,3,4a,8a-tetraza-cyclopentanaphthalene-4,9-dione], in test [2], the ED50 was 0.21 mg/kg. Moreover, in test [1], the “Inhibition” value was 9.49. The compound also showed a 50% inhibitory concentration (IC50) at Angiotensin II receptor of 2.8 nM.
For `CCCc1nc2c(=O)n3n(c(=O)c2n1Cc1ccc(-c2ccccc2-c2nn[nH]n2)cc1)C(C)CCC3C(=O)O` (stereo not shown) [Compound No. 111, 4,9-dioxo-8-methyl-2-n-propyl-5,6,7,8-tetrahydro-1-[(2'-(1H-tetrazol-5-yl)biphenyl-4-yl)methyl]-1H-1,3,4a,8a-tetraza-cyclopentanaphthalene-5-carboxylic acid] the same measures were 0.51 mg/kg, 9.01 and 21 nM.
For `CCCc1nc2c(=O)n3n(c(=O)c2n1Cc1ccc(-c2ccccc2-c2nn[nH]n2)cc1)C(C)CCC3C(=O)OCC` (stereo not shown) [Compound No. 139, ethyl 4,9-dioxo-8-methyl-2-n-propyl-5,6,7,8-tetrahydro-1-[(2'-(1H-tetrazol-5-yl)biphenyl-4-yl)methyl]-1H-1,3,4a,8a-tetraza-cyclopentanaphthalene-5-carboxylate], in that order: 0.038 mg/kg, 10.63 and 1.9 nM.
For the compound `CCCc1nc2c(=O)n3n(c(=O)c2n1Cc1ccc(-c2ccccc2-c2nn[nH]n2)cc1)C(C)CCC3C(=O)N(CC)CC` (stereo not shown) [Compound No. 203, 4,9-dioxo-8-methyl-2-n-propyl-5,6,7,8-tetrahydro-1-[{2'-(1H-tetrazol-5-yl)biphenyl-4-yl}methyl]-1H-1,3,4a,8a-tetraza-cyclopentanaphthalene-5-carboxy-N,N-diethylamide], in test [1], the “Inhibition” value was determined as 10.0. On Angiotensin II receptor, this compound returned an IC50 of 1.9 nM.
Take `CCCCc1nc2c(=O)n3n(c(=O)c2n1Cc1ccc(-c2ccccc2-c2nnn[nH]2)cc1)C1(CO)CCC3CC1` [Compound No. 222, 2-n-butyl-5,8-ethano-8-hydroxymethyl-5,6,7,8-tetrahydro-1-[{2'-(1H-tetrazol-5-yl)biphenyl-4-yl}methyl]-1H-1,3,4a,8a-tetraza-cyclopentanaphthalene-4,9-dione]: in test [2], the ED50 amounted to 0.56 mg/kg. Besides, the IC50 at Angiotensin II receptor turned out to be 3 nM.
For `CCCc1nc2c(=O)n3n(c(=O)c2n1Cc1ccc(-c2ccccc2-c2nnn[nH]2)cc1)C1CCC3(C(=O)N(CC)CC)CC1` [Compound No. 231, 4,9-dioxo-5,8-ethano-2-n-propyl-5,6,7,8-tetrahydro-1-[{2'-(1H-tetrazol-5-yl)biphenyl-4-yl}methyl]-1H-1,3,4a,8a-tetraza-cyclopentanaphthalene-5-carboxy-N,N-diethylamide], in that order: 0.074 mg/kg and 9.8 nM.
For `CCCCc1nc2c(=O)n3n(c(=O)c2n1Cc1ccc(-c2ccccc2-c2nn[nH]n2)cc1)C1CCC3(C(=O)NC(C)(C)C)CC1` [Compound No. 236, 2-n-butyl-4,9-dioxo-5,8-ethano-5,6,7,8-tetrahydro-1-[{2'-(1H-tetrazol-5-yl)biphenyl-4-yl}methyl]-1H-1,3,4a,8a-tetraza-cyclopentanaphthalene-5-carboxy-N-t-butylamide], in that order: 0.11 mg/kg and 32 nM.
`CCCc1nc2c(n1Cc1ccc(-c3ccccc3-c3nn[nH]n3)cc1)C(=O)N1CCCCN1C2` [Compound No. 366, 2-n-propyl-5,6,7,8-tetrahydro-1-[{2'-(1H-tetrazol-5-yl)biphenyl-4-yl}methyl]-1H,4H-1,3,4a,8a-tetraza-cyclopentanaphthalene-9-one]: the “Inhibition” value in test [1] is 9.32. The same compound gave an IC50 on Angiotensin II receptor of 32 nM.
With `CCCc1nc2c(n1Cc1ccc(-c3ccccc3-c3nn[nH]n3)cc1)C(=O)N1C(C)CCC(C)N1C2` (stereo not shown) [Compound No. 430, 5,8-dimethyl-2-n-propyl-5,6,7,8-tetrahydro-1-[{2'-(1H-tetrazol-5-yl)biphenyl-4-yl}methyl]-1H,4H-1,3,4a,8a-tetraza-cyclopentanaphthalene-9-one], the “Inhibition” value in test [1] came to 10.04. The same compound registered an IC50 at Angiotensin II receptor of 3.9 nM.
Consider `CCCCc1nc2c(=O)n3n(c(=O)c2n1Cc1ccc(-c2ccccc2-c2nn[nH]n2)cc1)CC(C)=C(C)C3` [compound 68, 2-n-butyl-5,8-dihydro-6,7-dimethyl-1-[(2'-(1H-tetrazol-5-yl)biphenyl-4-yl)methyl]-1H-1,3,4a,8a-tetraza-cyclopentanaphthalene-4,9-dione], for which the ED50 in test [2] amounted to 0.56 mg/kg. The compound further showed an IC50 on Angiotensin II receptor of 8.1 nM.
On to `CCCCc1nc2c(=O)n3n(c(=O)c2n1Cc1ccc(-c2ccccc2-c2nn[nH]n2)cc1)C1C=CC3CC1` (stereo not shown) [compound 106, 2-n-butyl-5,8-dihydro-5,8-ethano-1-[(2'-(1H-tetrazol-5-yl)biphenyl-4-yl)methyl]-1H-1,3,4a,8a-tetraza-cyclopentanaphthalene-4,9-dione], for which, in test [1], the “Inhibition” value came to 9.2. On Angiotensin II receptor, this compound returned an IC50 of 3.8 nM.
For `CCCCc1nc2c(=O)n3n(c(=O)c2n1Cc1ccc(-c2ccccc2-c2nn[nH]n2)cc1)C(C)CCC3C(=O)OCC` (stereo not shown) [compound 169, ethyl 2-n-butyl-4,9-dioxo-8-methyl-5,6,7,8-tetrahydro-1-[{2'-(1H-tetrazol-5-yl)biphenyl-4-yl}methyl]-1H-1,3,4a,8a-tetraza-cyclopentanaphthalene-5-carboxylate], in that order: 10.19 and 1.3 nM.
